Results: patent US5698391A, “Methods for synthetic unrandomization of oligomer fragments” (ISIS Pharmaceuticals, Inc., priority 1994, dated 1997)

tested on: HIV gag-pol stem loop; assay: Gel shift, oligonucleotide set binding to HIV gag-pol triple strand; conditions: pH 5, 100 mM NaCl, 2 mM MgCl2, 1 mM spermidine
From the text: Binding to double stranded DNA or RNA is possible by formation of a three stranded complex, with the incoming third strand binding in the major groove of the duplex RNA or DNA. FIG. 6 illustrates a double stranded RNA structure from HIV known as the gag-pol stem loop (Vickers and Ecker, Nucleic Acids Research). One of the limitations in the design of triple strand interactions is the need to have a long stretch of homopurines as a target. The 3' (right) side of the gag-pol stem loop is homopurine except for a pair of cytosines near the bottom of the stem. To determine the best oligonucleotide to bind to the gag-pol stem loop, a group of RNA oligonucleotide sets was designed to bind to the purine-rich strand of the gag-pol stem-loop by Hoogstein base pairing and prepared in accordance with Examples 2 and 6. Binding to the gag-pol stemloop was measured by gel shift analysis as previously described in Example 8 with the following modifications: the radiolabeled gag-pol RNA was incubated with the oligonucleotide in 100 mM NaCl, 25 mM TRIS acetate (pH 5), 2 mM MgCl2, 1 mM spermidine. The gel was 15% acrylamide with 50 mM NaCl and 2 mM MgCl2 added to the running buffer.

“B2: RNA oligonucleotide, SEQ ID NO: 11 (CCCUUCCCGUC; RNA, backbone not given here) [Set B2]” and “D2: RNA oligonucleotide, SEQ ID NO: 13 (CCCUUCCCUUC; RNA, backbone not given here) [Set D2]” are the same in Kd: 10 µM for the first, 10 µM for the second.

Going from “A2: RNA oligonucleotide, SEQ ID NO: 10 (CCCUUCCCAUC; RNA, backbone not given here) [Set A2]” to “C2: RNA oligonucleotide, SEQ ID NO: 12 (CCCUUCCCCUC; RNA, backbone not given here) [Set C2]”, the Kd falls from 10 µM to 1 µM (10-fold). The second binds more tightly here.
